This note sets out measurements from US20260184713A1, “KINASE INHIBITORS” (The United States of America, as represented by the …, priority 2022, published 2026).

Data set [1] addresses RIα2:JPKAcα2 chimeric kinase holoenzyme (Homo sapiens, UniProt P17612). In words: JPKAcα chimeric kinase holoenzyme ELISA dose response.
Procedure: Compounds were tested to determine an IC50 value for inhibitory activity against RIα2:JPKAcα2 chimeric kinase holoenzyme. A 3× dose-response curve was set up over a final compound concentration range of 0-10 μM containing 1 μM cAMP, 50 μM ATP, and 0.4% DMSO in 100 mM Tris-HCl pH 7.5 (all final concentrations). A no cAMP/ATP control was also included for background normalization.
The % normalized activity measures were then fit to the following equation using a nonlinear regression least-squares fit with a variable slope (GraphPad Prism Software, San Diego, CA) an IC50 value was calculated using the following formula.
In another data set the target is T1, PKADJ (Homo sapiens, UniProt P17612).
T1 construct: gene fusion between the first exon of the gene encoding the Heat Shock Protein 40 (HSP40) family member DNAJB1 and the second exon; the other entry of the earlier key: DNAJB1 (P25685, DnaJ homolog subfamily B member 1)
In words: modified sandwich ELISA, PKADJ holoenzyme. The class given is biochemical. How it is done: The reaction and readout components of this assay were than optimized including optimal reactant concentrations for the kinase reaction suitable to identify both inhibitors and activators of PKAJ.
The PKADJ holoenzyme was treated with the test compounds in the reaction step where the holoenzyme was dissociated to release the activated catalytic unit (PKADJc).

The target of another data set is wide-type PKA (wt-PKA) (Homo sapiens, UniProt P17612). In words: modified sandwich ELISA, wild-type PKA. The class given is biochemical. To be noted: read-out: IC50 against wt-PKA.
The target of a further data set is T2, DYRK2 (Homo sapiens, UniProt Q92630).
T2 construct: purchased Reaction Biology Corp
T2 sequence (Q92630 1-601): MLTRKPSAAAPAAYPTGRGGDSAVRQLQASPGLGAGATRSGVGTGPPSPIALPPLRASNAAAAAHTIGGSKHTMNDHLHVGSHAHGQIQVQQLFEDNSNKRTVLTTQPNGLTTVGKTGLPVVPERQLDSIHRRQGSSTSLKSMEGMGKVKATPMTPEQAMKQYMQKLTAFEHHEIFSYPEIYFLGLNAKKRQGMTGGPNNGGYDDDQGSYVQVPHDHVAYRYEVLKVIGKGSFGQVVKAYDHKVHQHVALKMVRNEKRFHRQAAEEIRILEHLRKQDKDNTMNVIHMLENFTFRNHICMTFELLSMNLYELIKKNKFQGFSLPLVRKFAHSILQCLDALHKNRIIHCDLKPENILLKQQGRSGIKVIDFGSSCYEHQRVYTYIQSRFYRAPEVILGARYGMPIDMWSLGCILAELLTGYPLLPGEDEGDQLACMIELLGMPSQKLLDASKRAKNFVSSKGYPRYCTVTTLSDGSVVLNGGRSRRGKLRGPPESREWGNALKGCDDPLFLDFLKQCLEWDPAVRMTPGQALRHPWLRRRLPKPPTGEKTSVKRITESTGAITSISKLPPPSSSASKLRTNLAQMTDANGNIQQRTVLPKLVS
In words: HOTSPOT radiometric kinase assay. It counts as biochemical. To be noted: 50 nM, 10 μM ATP.

A further data set addresses MAP2K1 (MEK1) (Homo sapiens, UniProt Q02750). In words: HOTSPOT radiometric kinase assay.
In another data set the target is ERK1 (Homo sapiens, UniProt P27361). In words: HOTSPOT radiometric kinase assay.
The target in a further data set is PKAα (Homo sapiens, UniProt P17612). In words: HOTSPOT radiometric kinase assay.
For the next data set, the target named is PKG1α (Homo sapiens, UniProt Q13976). In words: HOTSPOT radiometric kinase assay. It counts as biochemical. The settings on record: 50 nM, 10 μM ATP.
In the next data set the target is FLT1/VEGFR1 (Homo sapiens, UniProt P17948). In words: HOTSPOT radiometric kinase assay.
The target in a further data set is T3, LATS1 (Homo sapiens, UniProt O95835).
T3 construct: purchased Reaction Biology Corp
T3 sequence (O95835 1-1130): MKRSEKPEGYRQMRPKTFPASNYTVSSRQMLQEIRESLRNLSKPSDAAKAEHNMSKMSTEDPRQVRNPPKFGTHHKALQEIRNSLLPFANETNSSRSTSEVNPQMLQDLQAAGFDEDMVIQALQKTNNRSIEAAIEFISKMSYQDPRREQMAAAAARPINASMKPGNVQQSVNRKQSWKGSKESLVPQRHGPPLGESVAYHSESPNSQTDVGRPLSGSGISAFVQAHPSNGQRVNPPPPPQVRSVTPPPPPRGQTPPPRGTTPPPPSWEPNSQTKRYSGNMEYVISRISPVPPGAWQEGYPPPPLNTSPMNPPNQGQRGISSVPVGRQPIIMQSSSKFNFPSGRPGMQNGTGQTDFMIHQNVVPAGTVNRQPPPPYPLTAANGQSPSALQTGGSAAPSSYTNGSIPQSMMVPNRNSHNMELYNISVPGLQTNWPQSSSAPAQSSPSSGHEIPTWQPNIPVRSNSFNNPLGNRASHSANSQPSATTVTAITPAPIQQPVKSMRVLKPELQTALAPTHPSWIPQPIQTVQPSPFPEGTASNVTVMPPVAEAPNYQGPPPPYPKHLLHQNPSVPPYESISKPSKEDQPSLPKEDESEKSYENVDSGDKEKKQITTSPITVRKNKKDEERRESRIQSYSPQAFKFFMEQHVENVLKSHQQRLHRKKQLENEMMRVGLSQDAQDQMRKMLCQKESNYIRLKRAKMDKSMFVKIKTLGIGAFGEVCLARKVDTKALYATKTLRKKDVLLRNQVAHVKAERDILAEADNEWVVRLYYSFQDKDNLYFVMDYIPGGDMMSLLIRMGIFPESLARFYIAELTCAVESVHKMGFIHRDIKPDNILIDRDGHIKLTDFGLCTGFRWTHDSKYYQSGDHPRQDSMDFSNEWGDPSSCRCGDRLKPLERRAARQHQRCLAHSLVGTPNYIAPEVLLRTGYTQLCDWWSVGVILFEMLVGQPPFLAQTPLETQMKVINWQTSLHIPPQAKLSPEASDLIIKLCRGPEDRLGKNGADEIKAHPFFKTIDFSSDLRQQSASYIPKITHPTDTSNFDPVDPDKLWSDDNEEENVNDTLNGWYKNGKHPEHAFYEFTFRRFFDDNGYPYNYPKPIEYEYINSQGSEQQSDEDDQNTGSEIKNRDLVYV
In words: HOTSPOT radiometric kinase assay. The settings on record: 50 nM, 10 μM ATP. The class given is biochemical.

The target in the next data set is PKCα (Homo sapiens, UniProt P17252). In words: HOTSPOT radiometric kinase assay.
In another data set the target is T4, CLK1 (Homo sapiens, UniProt P49759).
T4 construct: purchased Reaction Biology Corp
In words: HOTSPOT radiometric kinase assay. The class given is biochemical. To be noted: 50 nM, 10 μM ATP.

Another data set concerns the target CK1α1 (Homo sapiens, UniProt P48729). In words: HOTSPOT radiometric kinase assay.
Another data set addresses T5, PKCθ (Homo sapiens, UniProt Q04759).
T5 construct: purchased Reaction Biology Corp
In words: HOTSPOT radiometric kinase assay. The settings on record: 50 nM, 10 μM ATP. It counts as biochemical.

Another data set addresses CAMK1δ (Homo sapiens, UniProt Q8IU85). In words: HOTSPOT radiometric kinase assay.
The test system of data set [2] is panel of 370 human protein kinases. In words: pan human kinome profiling (370 kinases). The settings on record: 50 nM; panel of 370 kinases.
The next data set has as its target GSK3β (Homo sapiens, UniProt P49841). In words: HOTSPOT radiometric kinase assay.
The target in another data set is AKT1 (Homo sapiens, UniProt P31749). In words: HOTSPOT radiometric kinase assay.
A further data set has as its target T6, PKG1β (Homo sapiens, UniProt Q13976).
T6 construct: purchased Reaction Biology Corp
In words: HOTSPOT radiometric kinase assay. The class given is biochemical. The settings on record: 50 nM, 10 μM ATP.

The target of another data set is T7, DYRK1A (Homo sapiens, UniProt Q13627).
T7 construct: purchased Reaction Biology Corp
In words: HOTSPOT radiometric kinase assay. It counts as biochemical. The settings on record: 50 nM, 10 μM ATP.

The target of another data set is ERBB2/HER2 (Homo sapiens, UniProt P04626). In words: HOTSPOT radiometric kinase assay.
The target in another data set is T8, STK39/STLK3 (Homo sapiens, UniProt Q9UEW8).
T8 construct: purchased Reaction Biology Corp
In words: HOTSPOT radiometric kinase assay. It counts as biochemical. The settings on record: 50 nM, 10 μM ATP.

Another data set concerns the target T9, DYRK4 (Homo sapiens, UniProt Q9NR20).
T9 construct: purchased Reaction Biology Corp
In words: HOTSPOT radiometric kinase assay. The class given is biochemical. To be noted: 10 μM ATP.

Sequence of MAP2K1 (MEK1) (Q02750 whole entry): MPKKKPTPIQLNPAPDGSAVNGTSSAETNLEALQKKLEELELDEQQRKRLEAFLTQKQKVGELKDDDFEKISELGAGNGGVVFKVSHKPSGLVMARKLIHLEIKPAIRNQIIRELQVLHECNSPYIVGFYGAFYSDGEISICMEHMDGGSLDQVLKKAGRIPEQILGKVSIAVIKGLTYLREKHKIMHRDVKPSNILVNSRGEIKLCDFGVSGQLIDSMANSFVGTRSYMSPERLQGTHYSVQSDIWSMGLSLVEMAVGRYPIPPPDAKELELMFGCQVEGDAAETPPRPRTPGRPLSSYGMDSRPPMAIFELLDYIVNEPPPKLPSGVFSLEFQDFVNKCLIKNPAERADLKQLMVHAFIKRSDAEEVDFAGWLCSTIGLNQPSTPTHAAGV
Sequence of GSK3β (P49841 whole entry): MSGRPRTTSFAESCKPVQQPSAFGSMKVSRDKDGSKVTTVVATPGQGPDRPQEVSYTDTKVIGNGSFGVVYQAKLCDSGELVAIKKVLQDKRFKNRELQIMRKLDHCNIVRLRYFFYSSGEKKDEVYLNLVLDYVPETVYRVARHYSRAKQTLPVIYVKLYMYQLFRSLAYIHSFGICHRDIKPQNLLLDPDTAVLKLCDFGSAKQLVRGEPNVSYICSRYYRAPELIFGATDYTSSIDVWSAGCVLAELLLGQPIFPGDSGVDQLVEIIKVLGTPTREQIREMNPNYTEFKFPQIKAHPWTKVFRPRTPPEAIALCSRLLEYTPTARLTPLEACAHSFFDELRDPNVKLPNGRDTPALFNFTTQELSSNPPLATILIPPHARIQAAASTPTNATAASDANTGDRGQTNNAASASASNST
Sequence of AKT1 (P31749 whole entry): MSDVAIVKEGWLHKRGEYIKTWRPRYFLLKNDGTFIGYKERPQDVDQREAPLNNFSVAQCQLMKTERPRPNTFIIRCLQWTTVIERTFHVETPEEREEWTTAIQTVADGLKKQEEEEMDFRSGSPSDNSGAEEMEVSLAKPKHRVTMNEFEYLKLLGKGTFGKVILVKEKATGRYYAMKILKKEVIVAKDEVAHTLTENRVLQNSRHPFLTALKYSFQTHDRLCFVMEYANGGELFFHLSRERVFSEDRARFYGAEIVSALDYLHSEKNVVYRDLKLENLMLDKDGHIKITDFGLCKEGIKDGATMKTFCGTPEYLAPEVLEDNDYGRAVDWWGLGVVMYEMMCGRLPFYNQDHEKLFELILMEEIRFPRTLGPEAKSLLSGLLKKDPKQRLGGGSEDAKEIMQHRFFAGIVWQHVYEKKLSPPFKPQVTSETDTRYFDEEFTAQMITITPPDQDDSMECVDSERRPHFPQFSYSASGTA
T4 sequence (P49759 whole entry): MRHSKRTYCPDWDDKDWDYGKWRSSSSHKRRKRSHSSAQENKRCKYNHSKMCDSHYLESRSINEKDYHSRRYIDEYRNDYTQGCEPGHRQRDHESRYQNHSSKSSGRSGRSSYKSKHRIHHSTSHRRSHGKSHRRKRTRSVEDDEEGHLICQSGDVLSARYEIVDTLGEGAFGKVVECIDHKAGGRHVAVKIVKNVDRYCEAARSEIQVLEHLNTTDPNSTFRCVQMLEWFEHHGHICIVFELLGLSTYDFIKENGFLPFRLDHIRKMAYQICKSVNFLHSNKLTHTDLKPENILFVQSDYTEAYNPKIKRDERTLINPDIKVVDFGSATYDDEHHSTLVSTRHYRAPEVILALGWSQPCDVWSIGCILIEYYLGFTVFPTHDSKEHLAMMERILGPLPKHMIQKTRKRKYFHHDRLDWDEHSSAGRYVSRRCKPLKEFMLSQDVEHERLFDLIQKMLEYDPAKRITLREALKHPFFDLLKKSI
T6 sequence (Q13976 1-686 isoform Q13976-2): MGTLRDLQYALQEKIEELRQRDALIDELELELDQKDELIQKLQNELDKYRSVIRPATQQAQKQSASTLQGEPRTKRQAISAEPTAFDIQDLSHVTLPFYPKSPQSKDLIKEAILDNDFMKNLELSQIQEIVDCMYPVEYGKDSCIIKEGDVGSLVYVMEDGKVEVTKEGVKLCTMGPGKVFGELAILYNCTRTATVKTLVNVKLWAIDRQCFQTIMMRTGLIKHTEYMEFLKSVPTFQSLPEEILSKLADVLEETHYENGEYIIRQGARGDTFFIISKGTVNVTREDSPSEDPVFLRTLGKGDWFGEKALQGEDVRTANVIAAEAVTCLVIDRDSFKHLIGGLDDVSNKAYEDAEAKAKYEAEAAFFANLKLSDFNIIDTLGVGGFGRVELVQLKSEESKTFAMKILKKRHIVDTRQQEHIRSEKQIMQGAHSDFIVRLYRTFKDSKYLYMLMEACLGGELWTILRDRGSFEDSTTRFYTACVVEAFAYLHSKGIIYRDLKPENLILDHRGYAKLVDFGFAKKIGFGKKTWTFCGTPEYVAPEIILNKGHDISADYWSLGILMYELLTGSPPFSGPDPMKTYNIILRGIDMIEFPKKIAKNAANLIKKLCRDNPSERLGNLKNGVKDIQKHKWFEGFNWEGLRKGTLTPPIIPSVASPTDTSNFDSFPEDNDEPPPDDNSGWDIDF
Sequence of ERBB2/HER2 (P04626 23-1255): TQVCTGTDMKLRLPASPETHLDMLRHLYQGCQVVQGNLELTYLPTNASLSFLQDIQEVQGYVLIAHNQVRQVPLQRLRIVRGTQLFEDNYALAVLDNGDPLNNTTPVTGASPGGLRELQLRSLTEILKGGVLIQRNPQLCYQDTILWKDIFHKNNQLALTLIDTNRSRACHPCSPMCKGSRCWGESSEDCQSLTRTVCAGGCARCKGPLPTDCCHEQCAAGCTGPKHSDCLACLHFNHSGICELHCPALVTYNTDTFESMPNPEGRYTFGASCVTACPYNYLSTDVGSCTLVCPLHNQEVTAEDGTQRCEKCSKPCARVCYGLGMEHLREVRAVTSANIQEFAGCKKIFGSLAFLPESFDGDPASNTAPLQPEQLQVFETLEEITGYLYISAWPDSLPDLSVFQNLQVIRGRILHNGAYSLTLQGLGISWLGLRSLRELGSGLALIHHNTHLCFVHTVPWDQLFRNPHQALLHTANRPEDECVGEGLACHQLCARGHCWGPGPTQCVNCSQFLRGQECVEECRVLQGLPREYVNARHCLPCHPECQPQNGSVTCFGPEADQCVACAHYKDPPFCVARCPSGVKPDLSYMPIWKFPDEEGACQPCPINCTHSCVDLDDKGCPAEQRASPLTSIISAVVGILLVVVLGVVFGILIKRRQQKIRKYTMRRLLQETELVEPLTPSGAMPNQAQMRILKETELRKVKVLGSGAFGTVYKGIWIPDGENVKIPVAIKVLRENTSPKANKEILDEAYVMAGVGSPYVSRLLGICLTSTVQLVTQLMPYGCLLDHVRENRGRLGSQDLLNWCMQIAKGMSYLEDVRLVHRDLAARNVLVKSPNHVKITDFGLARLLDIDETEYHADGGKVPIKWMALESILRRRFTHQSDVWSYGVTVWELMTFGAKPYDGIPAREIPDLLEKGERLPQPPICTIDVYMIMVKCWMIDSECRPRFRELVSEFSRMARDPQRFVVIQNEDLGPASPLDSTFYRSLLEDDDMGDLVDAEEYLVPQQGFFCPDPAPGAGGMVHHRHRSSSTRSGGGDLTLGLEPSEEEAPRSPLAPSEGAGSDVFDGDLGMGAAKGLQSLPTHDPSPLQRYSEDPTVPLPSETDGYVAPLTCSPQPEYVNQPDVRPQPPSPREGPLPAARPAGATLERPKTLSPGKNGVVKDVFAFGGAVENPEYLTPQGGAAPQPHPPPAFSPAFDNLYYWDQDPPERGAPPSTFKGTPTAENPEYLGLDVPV
Sequence of CK1α1 (P48729 whole entry): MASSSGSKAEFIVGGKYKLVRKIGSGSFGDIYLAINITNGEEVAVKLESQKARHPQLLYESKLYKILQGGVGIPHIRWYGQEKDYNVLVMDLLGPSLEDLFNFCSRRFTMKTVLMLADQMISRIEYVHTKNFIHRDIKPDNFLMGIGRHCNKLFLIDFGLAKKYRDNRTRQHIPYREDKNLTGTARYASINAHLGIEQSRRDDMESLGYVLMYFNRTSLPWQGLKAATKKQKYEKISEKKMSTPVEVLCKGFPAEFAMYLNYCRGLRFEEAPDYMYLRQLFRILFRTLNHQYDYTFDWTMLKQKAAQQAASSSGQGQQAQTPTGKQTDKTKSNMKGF
Sequence of ERK1 (P27361 whole entry): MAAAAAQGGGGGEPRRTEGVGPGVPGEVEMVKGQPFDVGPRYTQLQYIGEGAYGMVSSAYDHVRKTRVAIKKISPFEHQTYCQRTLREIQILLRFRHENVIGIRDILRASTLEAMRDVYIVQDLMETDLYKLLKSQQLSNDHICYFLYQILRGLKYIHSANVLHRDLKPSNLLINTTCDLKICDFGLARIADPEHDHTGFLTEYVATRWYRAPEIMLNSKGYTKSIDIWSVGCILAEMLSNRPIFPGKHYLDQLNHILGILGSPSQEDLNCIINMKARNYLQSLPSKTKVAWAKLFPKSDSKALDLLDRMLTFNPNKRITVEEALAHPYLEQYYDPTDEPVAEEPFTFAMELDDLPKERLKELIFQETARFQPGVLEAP
T9 sequence (Q9NR20 whole entry): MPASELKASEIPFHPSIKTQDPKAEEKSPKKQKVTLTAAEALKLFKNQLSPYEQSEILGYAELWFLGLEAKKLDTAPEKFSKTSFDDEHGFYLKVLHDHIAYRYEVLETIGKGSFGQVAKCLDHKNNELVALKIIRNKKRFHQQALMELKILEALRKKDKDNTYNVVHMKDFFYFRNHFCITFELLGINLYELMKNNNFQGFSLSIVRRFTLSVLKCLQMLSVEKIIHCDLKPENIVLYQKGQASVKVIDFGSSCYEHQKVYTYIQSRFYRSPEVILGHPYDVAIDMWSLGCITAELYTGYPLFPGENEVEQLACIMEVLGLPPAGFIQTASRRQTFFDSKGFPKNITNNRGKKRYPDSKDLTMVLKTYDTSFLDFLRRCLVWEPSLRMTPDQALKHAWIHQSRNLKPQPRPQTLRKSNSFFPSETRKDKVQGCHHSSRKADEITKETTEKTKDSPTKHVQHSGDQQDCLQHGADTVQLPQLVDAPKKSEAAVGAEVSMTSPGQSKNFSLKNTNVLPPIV
Procedure for PKAα: The differential was calculated as follows: IC50 (kinase)/IC50 (PKG1a).

For `COCCNC(=O)C1=CN(c2ncnc3[nH]cnc23)CCS1` [Compound 183A050C, N-(2-methoxyethyl)-4-(7H-purin-6-yl)-3,4-dihydro-2H-1,4-thiazine-6-carboxamide], the half-inhibitory concentration (IC50) in data set [1] was > 10 µM.
For `NCCNC(=O)C1CN(c2ncnc3[nH]cnc23)CCS1` (stereo not drawn) [Compound 183A051C, N-(2-aminoethyl)-4-(7H-purin-6-yl)thiomorpholine-2-carboxamide], the IC50 in data set [1] is > 10 µM.
For the molecule `NCCNC(=O)C1=CN(c2ncnc3[nH]cnc23)CCS1` [Compound 183A049E, N-(2-aminoethyl)-4-(7H-purin-6-yl)-3,4-dihydro-2H-1,4-thiazine-6-carboxamide], the half-maximal inhibitory concentration (IC50) in data set [1] was 0.1 to 1 µM.
Same read-out and setting: the value for `O=C(NCCNC(=O)c1ccccn1)C1=CN(c2ncnc3nc[nH]c23)CCS1` [Compound 183A049C, N-(2-(picolinamido)ethyl)-4-(7H-purin-6-yl)-3,4-dihydro-2H-1,4-thiazine-6-carboxamide] was > 10 µM.
`Cn1cncc1C1=CN(c2ncnc3[nH]c(=O)[nH]c23)CCS1` [Compound 2, Aplithianine B]: at PKADJ (compared with compound 1), the “fold less potent than 1 against PKADJ” value is recorded as “more than 60 fold”. Also, the concentration for half-maximal inhibition (IC50) on PKADJ (modified sandwich ELISA, read-out: IC50 against PKADJ) stood at 69 µM; on wide-type PKA (wt-PKA) it was 45 µM.
For `O=C(NCCNC(=O)c1ccccc1)C1=CN(c2ncnc3nc[nH]c23)CCS1` [Compound 183A049F, N-(2-benzamidoethyl)-4-(7H-purin-6-yl)-3,4-dihydro-2H-1,4-thiazine-6-carboxamide], in data set [1], the half-inhibitory concentration (IC50) was > 10 µM.
Regarding `CNCCNC(=O)C1=CN(c2ncnc3nc[nH]c23)CCS1` [Compound 183A050E, N-(2-(methylamino)ethyl)-4-(7H-purin-6-yl)-3,4-dihydro-2H-1,4-thiazine-6-carboxamide], the concentration for half-maximal inhibition (IC50) in data set [1] lay within 1.01 to 10 µM.
In the case of `Cn1cnc(Br)c1C1=CN(c2ncnc3nc[nH]c23)CCS1` [Compound 1a, Aplithianine A1], the inhibition at 0.05 µM on DYRK2, against PKG1α, on LATS1, against CLK1, against PKCθ and at PKG1β was > 50% in each case. Also, the inhibition at 0.05 µM against DYRK1A and on STK39/STLK3 was > 50% throughout. The IC50 against MAP2K1 (MEK1) was 18 to 65 µM; at wide-type PKA (wt-PKA), 1.22 µM; against ERK1, 0.8 to 6.6 µM; against PKAα, 0.043 to 0.189 µM; on FLT1/VEGFR1, 18 to 65 µM; against PKCα, 0.8 to 6.6 µM. Moreover, the half-inhibitory concentration (IC50) fell in the range of 0.8 to 6.6 µM against CK1α1; 18 to 65 µM against CAMK1δ; 0.043 to 0.189 µM against GSK3β; 0.043 to 0.189 µM on AKT1; 18 to 65 µM against ERBB2/HER2. Further, at PKAα (50 nM, 10 μM ATP), the PKAα % inhibition was found to be 78%. In addition, the “number of kinases more potent targets compared to PKA” value in data set [2] is on record as 29.
With `CC(=O)NCCNC(=O)C1=CN(c2ncnc3[nH]cnc23)CCS1` [Compound 183A050B, N-(2-acetamidoethyl)-4-(7H-purin-6-yl)-3,4-dihydro-2H-1,4-thiazine-6-carboxamide], in data set [1], the IC50 was > 10 µM.
On DYRK4, `O=C1Nc2ccc(I)cc2/C1=C/c1cc(Br)c(O)c(Br)c1` [GW5074, reference compound] came in with an IC50 of 3.66 µM.
Turning to `O=C(NCCO)C1=CN(c2ncnc3[nH]cnc23)CCS1` [Compound 183A050D, N-(2-hydroxyethyl)-4-(7H-purin-6-yl)-3,4-dihydro-2H-1,4-thiazine-6-carboxamide], the IC50 in data set [1] was > 10 µM.
